This is an account of results in patent US7018817B1, “Process for the preparation of compounds with enhanced optical purity” (DSM IP Assets B.V., priority 1998, dated 2006).

The target in the first assay is T1, PDF(Fe) (peptide deformylase) (Escherichia coli, UniProt P0A6K3).
T1 construct: made in house; host or cells: overproducing E. coli cells
T1 sequence (P0A6K3 whole entry): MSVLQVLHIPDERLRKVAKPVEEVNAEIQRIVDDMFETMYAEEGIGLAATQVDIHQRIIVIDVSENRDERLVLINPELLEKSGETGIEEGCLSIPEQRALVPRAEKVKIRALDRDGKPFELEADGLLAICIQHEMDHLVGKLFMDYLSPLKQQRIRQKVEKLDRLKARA
Put plainly: Enantioselective enzymatic deformylation of N-formyl compounds by PDF(Fe), HPLC analysis. It counts as biochemical, E. coli. The following applies: Method A: 100 mM MOPS/NaOH, 2 M Li2SO4, pH 7.2, 37° C. The procedure:
PDF(Fe) was isolated from overproducing E. coli cells grown at 30° C. in 1.6 l TB medium for 14–16 h. About 13 g (wet weight) cell paste were suspended in 26 ml buffer (20 mM Hepes/KOH, 100 mM KF, pH 7.7 supplemented with 10 μg/ml catalase from bovine liver (Boehringer Mannheim) and 1 mM AEBSF, disintegrated by sonication (Branson B12, 20 min) at 0° C. and centrifuged at 200.000 g for 1 h. The clear supernatant (1.3 g of protein; according to biurete reaction) was mixed with 1.3 ml 10% (w/v) Polymin G-35 (BASF) adjusted to pH 7.7 and centrifuged at 40.000 g for 10 min. The supernatant was applied to a 20 ml Met-Lys-Sepharose column that had been equilibrated with 20 mM Hepes/KOH, 100 mM KF, 0.2 mM TCEP, pH 7.7. After washing with 120 ml of 20 mM Hepes/KOH, 100 mM KF, 0.2 mM TCEP, pH 7.7, PDF(Fe) was eluted with 150 ml 20 mM Hepes/KOH, 100 mM KCl, 0.2 mM TCEP, pH 7.7. The protein containing fractions were concentrated by ultrafiltration using an Amicon PM10 membrane (yield: 140 mg protein, 1400 U/mg; determined according to Groche et al.). After adjustment of the TCEP concentration to 1 mM and protein concentration to 40 mg/ml, the PDF(Fe) stock solution (40 mg/ml=2 mM) was stored frozen at −60° C. After thawing, the PDF(Fe) stock solution could be used directly in the deformylation experiments described below. If however solutions with lower PDF(Fe) concentrations were required for these deformylation experiments, the PDF stock solution was diluted further in 20 mM Hepes/KOH, pH 7.7, 100 mM KCl, 1 mg/ml bovine serum albumin, 10 μg/ml catalase solution.
In all cases HPLC conditions had to be developed in which the two deformylated isomers were separated from each other and from the formylated isomers. To this end two different techniques were applied that is method 1 and method 2, as described below.
From the quantities of deformylated isomers in the samples after various reaction times, both the initial deformylation rate constant (kf and ks in M^−1s^−1) could be calculated for both enantiomers, as well as the respective ee values. The enantioselectivity of the enzyme (E value) was calculated by taking the ratio of kf/ks and is given for all Examples in table 1, as well as the maximum ee value (eemax) observed during the experiments.
A Crownpak CR(+) column (4×150 mm) was used. Samples (5 μl) withdrawn from the deformylation mixture were mixed with 95 μl aqueous HClO4 (10 mM) to inactivate PDF(Fe). Following a brief centrifugation, 20 μl of the supernatant were applied to the Crownpak CR(+) column. For specific chromatographic conditions and retention times see table 2.
Method 2 (Precolumn derivatization with o-phthaldialdehyde (OPA) and N-acetyl-L-cysteine (NAC). Samples (25 μl) withdrawn from the deformylation mixture were mixed with 25 μl aqueous HClO4 (100 mM) to inactivate PDF(Fe). Following a brief centrifugation, 40 μl of the supernatant were added to 80 μl 1 M aqueous H3BO3/NaOH pH 9.4, subsequently 20 μl OPA reagent (consisting of OPA in H2O/CH3OH 1:1 v/v with a concentration as indicated in table 3) and 20 μl NAC reagent (consisting of NAC in H2O/CH3OH 1:1 v/v with a concentration as indicated in table 3) was added. After the time indicated in table 3 derivatization was terminated by addition of 80 μl (250 mM) aqueous H3PO4, and 20 μl of the solution were instantaneously applied to a Nucleosil 120-5 C18 (250×4 mm) column. Temperature was always ambient and detection was spectrophotometric using a wavelength of 257 nm and/or 340 nm. The used eluent was a mixture of aqueous 0.05 M H3PO4 brought at pH 7.0 with 1 M NaOH, and a percentage of acetonitrile as indicated in table 3. For derivatization of valine aminonitrile borate buffer was adjusted to pH 11 and addition of NAC reagent was done 10 min after OPA reagent had been added. Concentration of H3PO4 used for termination was 500 mM. Derivatization and separation conditions as well as the observed retention times for the deformylated compounds analyzed are compiled in table 3. […]
In the case of `O=CN1CCC[C@H]1C(=O)O` [Comparative Experiment B, N-formyl-proline, reference compound], the “kf (rate of deformylation of the most rapidly deformylated enantiomer)” value is listed as <0,004 M^−1s^−1 and the “ks (rate of deformylation of the least rapidly deformylated enantiomer)” value is <0.004 M⁻¹ s⁻¹.

Regarding `O=CNC(CO)c1ccccc1` (stereo not drawn) [Example 6, N-formyl-phenylglycinol], the “E (enantioselectivity, kf/ks)” value is listed as 18,5; the “eemax (maximum ee value observed)” value is on record as 93,3%; the “kf (rate of deformylation of the most rapidly deformylated enantiomer)” value was 6,3 M^−1s^−1; the “ks (rate of deformylation of the least rapidly deformylated enantiomer)” value was found to be 0.34 M⁻¹ s⁻¹.

On to `C[C@@H](CO)NC=O` [Example 8, N-formyl-alaninol], for which the “E (enantioselectivity, kf/ks)” value is 12; the “eemax (maximum ee value observed)” value is given as 85,6%; the “kf (rate of deformylation of the most rapidly deformylated enantiomer)” value is 0,22 M^−1s^−1; the “ks (rate of deformylation of the least rapidly deformylated enantiomer)” value came to 0.018 M⁻¹ s⁻¹.

In the case of `CC(C)C(C#N)NC=O` (stereo not drawn) [Example 10, N-formyl-valine aminonitrile], the “E (enantioselectivity, kf/ks)” value was 47,9; the “eemax (maximum ee value observed)” value is 95,5%; the “kf (rate of deformylation of the most rapidly deformylated enantiomer)” value is recorded as 29,7 M^−1s^−1; the “ks (rate of deformylation of the least rapidly deformylated enantiomer)” value turned out to be 0.62 M⁻¹ s⁻¹.

For the molecule `CC(NC=O)c1cccc2ccccc12` (stereo not drawn) [Example 12, N-formyl-1-(1-naphthyl)-ethylamine], the “E (enantioselectivity, kf/ks)” value came out at 15; the “eemax (maximum ee value observed)” value turned out to be 90%; the “kf (rate of deformylation of the most rapidly deformylated enantiomer)” value is listed as 0,45 M^−1s^−1; the “ks (rate of deformylation of the least rapidly deformylated enantiomer)” value was determined as 0.03 M⁻¹ s⁻¹.

Take “N-acetyl-phenylglycine amide [Comparative Experiment A, reference compound]”: the “kf (rate of deformylation of the most rapidly deformylated enantiomer)” value was <0,001 M^−1s^−1 and the “ks (rate of deformylation of the least rapidly deformylated enantiomer)” value was <0.001 M⁻¹ s⁻¹.

The assay is the same for the next values; noted with them: Method B: absence of Li2SO4, 100 mM MOPS/NaOH, 250 mM NaCl, 0.1 mg/ml catalase, pH 7.2, 37° C.
Regarding `O=CNC(C(=O)O)c1ccccc1` (stereo not drawn) [Example 1, N-formyl-phenylglycine], the “E (enantioselectivity, kf/ks)” value is 2255; the “eemax (maximum ee value observed)” value is recorded as 99,6%; the “kf (rate of deformylation of the most rapidly deformylated enantiomer)” value is listed as 10,6 M^−1s^−1; the “ks (rate of deformylation of the least rapidly deformylated enantiomer)” value was 0.0047 M⁻¹ s⁻¹.

Turning to `O=CNC(CC(=O)O)c1ccccc1` (stereo not drawn) [Example 2, N-formyl-3-amino-3-phenyl-propionic acid], the “E (enantioselectivity, kf/ks)” value is recorded as >1775; the “eemax (maximum ee value observed)” value is reported as 100%; the “kf (rate of deformylation of the most rapidly deformylated enantiomer)” value is on record as 7,1 M^−1s^−1; the “ks (rate of deformylation of the least rapidly deformylated enantiomer)” value was <0.004 M⁻¹ s⁻¹.

In the case of `O=CNC(CO)c1ccccc1` (stereo not drawn) [Example 6, N-formyl-phenylglycinol], the “E (enantioselectivity, kf/ks)” value is reported as 23,8; the “eemax (maximum ee value observed)” value is recorded as 90,5%; the “kf (rate of deformylation of the most rapidly deformylated enantiomer)” value is 0,69 M^−1s^−1; the “ks (rate of deformylation of the least rapidly deformylated enantiomer)” value was 0.029 M⁻¹ s⁻¹.

As for `COc1cccc(CC(C#N)NC=O)c1` (stereo not drawn) [Example 11, N-formyl-m-methoxy-phenylalanine aminonitrile], the “E (enantioselectivity, kf/ks)” value is on record as 685; the “eemax (maximum ee value observed)” value is reported as 99,0%; the “kf (rate of deformylation of the most rapidly deformylated enantiomer)” value worked out at 1370 M⁻¹ s⁻¹; the “ks (rate of deformylation of the least rapidly deformylated enantiomer)” value was 2 M⁻¹ s⁻¹.

Staying with this assay, now noted: Method C: absence of Li2SO4, 100 mM MES/NaOH, pH 6.2, 37° C.
`N#CC(Cc1ccccc1)NC=O` (stereo not drawn) [Example 9, N-formyl-phenylalanine aminonitrile]: the “E (enantioselectivity, kf/ks)” value came to 880; the “eemax (maximum ee value observed)” value is given as 98,8%; the “kf (rate of deformylation of the most rapidly deformylated enantiomer)” value was 880 M⁻¹ s⁻¹; the “ks (rate of deformylation of the least rapidly deformylated enantiomer)” value was found to be 1 M⁻¹ s⁻¹.

A further assay deals with known peptide deformylases.
Experiment: not given
The following applies: Rajagopalan et al., Biochemistry 1997; cited from earlier work.
For the molecule `CSCC[C@H](NC=O)C(=O)O` [N-formylmethionine], the “deformylase activity of known peptide deformylases towards the substrate” value was “no or little activity”.

Another assay has as its system L-aminoacylases.
Experiment: not given
The following applies: U.S. Pat. No. 4,745,067; cited from earlier work.
Turning to `CSCC[C@H](NC=O)C(=O)O` [N-formyl-L-methionine], the “activity of L-aminoacylases towards the substrate” value is “low”.
